Measurements as given in patent US11413328B2, “Methods for treating inflammatory conditions of the lungs” (priority 2016, dated 2022).
Bridges are numbered along the chain shown (N, C = ends). Where no end group is shown, it is not given here.

Columns and labels:
[1] = test system: murine, infection induced, severe, steroid-insensitive, neutrophilic, allergic airways disease model of asthma; experiment: Differential leucocyte counts in BALF, Ovalbumin/C. muridarum steroid-insensitive asthma model; type: in vivo, BALB/c mice; settings: Ova sensitized, C. muridarum infected mice, hBD-2 IN 5 mg/kg day 30, 32, 34
Description: Female 6-8 weeks old BALB/c mice were intraperitoneally (IP) sensitized to ovalbumin 50 μg with the adjuvant alum 1 mg in 200 μL 0.9% saline. Mice were intranasally (IN) challenged with Ova on day 12-13 and day 33-34 (10 μg in 50 μL sterile saline).
Airway inflammation: Differential leucocyte counts were obtained from May-Grunwald Giemsa stained BALF cells, using a light microscope.

[2] = test system: murine house dust mite/Freunds complete adjuvant driven model of allergic asthma; experiment: Lung resistance and compliance after methacholine, HDM/Freunds adjuvant asthma model (Example 2); type: in vivo, BALB/c mice; settings: vs HDM challenged vehicle
Description: Female 7-10 weeks old BALB/c mice were randomly allocated into 7 study groups one day prior to study start and subcutaneously (SC) sensitized to house dust mite (100 μg HDM in 200 μL saline plus Freunds complete adjuvant in 0.9% saline). Mice were then intranasally (IN) challenged with HDM on day 14 (HDM 25 μg in 50 μL of saline). […] The initial dose was administered 60 minutes prior to challenge, and the subsequent doses approximately 6 hours apart. Lung function: Starting 48 hours after HDM challenge, measurements of lung resistance and lung compliance were carried out after methacholine challenge (3.125 MCH1; 6.25 MCH2; 12.5 MCH3 and 25 mg/mL MCH4) by anaesthetized, cannulated mice using DSI's Buxco Finepoint RC system. Data are represented as airway resistance at […] and as dose responsive curves.

[3] = Pharmacokinetics after single oral gavage; type: in vivo, NMRI mice; settings: oral 4 mg/kg in mice
Description: Pharmacokinetic study to establish pharmacokinetic profile of hBD-2 following single oral gavage of 4 mg/kg administration to NMRI mice.
21 female NMRI mice were dosed by oral gavage 5 ml/kg using a gavage tube and a 1 ml syringe according to the individual body weight obtained on the day of dosing. Urine was strived sampled at random time points by gently massaging the inguinal area of the abdomen. The first blood sample was taken using a submandibular sampling method. The second blood sample was collected from Isoflurane anaesthetized mice. Intestinal samples were taken after euthanasia. The abdomen of each mouse was opened and three sections of the intestines were sampled.

[4] = test system: TNF-α, IL-4, IL-5, IL-6, IL-9, IL-13 and IL-33 in lung homogenate; experiment: Cytokine ELISA in lung homogenate, prophylactic treatment in HDM asthma model (Example 9); type: in vivo, BALB/c mice
Description: Female 7-10 weeks old BALB/c mice were randomly allocated into 5 study groups one day prior to study start and subcutaneously (SC) sensitized to house dust mite (100 μg HDM in 200 μL saline plus Freund's complete adjuvant in 0.9% saline). The mice were treated with hBD-2 orally and intranasally respectively at a dose of 1.2 mg/kg/day (0.4 mg/kg TID) starting on day 12 in the morning and continued TID at approximately 6 hours intervals. The last dose was administered on day 14 one hour prior to challenge. The total number of doses were 8 doses or a total of […] hBD-2. Mice were then intranasally (IN) challenged with HDM on day 14 (HDM 25 μg in 50 μL of saline).
Lung sampling for cytokine analysis: After completion of every BAL, lungs were removed from the thorax, snap frozen in liquid nitrogen and stored frozen at −80 degrees Celsius until analysis of cytokine concentration of TNF-α, IL-4, IL-5, IL-6, IL-9, IL-13 and IL-33 in lung homogenate by ELISA.

[5] = test system: IL-4, IL-5, IL-8 (KC), IL-9 and IL-13 in lung tissue homogenates; experiment: Cytokine ELISA in lung tissue homogenates, HDM asthma model (Example 3); type: in vivo, BALB/c mice
Description: (§1) Treatment regime: Female 7-10 weeks old BALB/c mice randomly allocated into 4 study groups one day prior to study start were subcutaneously (SC) sensitized to house dust mite (100 μg HDM in 200 μL saline plus Freund's complete adjuvant in 0.9% saline). Mice were intranasally (IN) challenged with HDM on day 14 (HDM 25 μg in 50 μL of saline). hBD-2 was administered IN or orally (0.4 mg/kg TID IN; 0.4 mg/kg TID orally, 50 μL phosphate buffered saline) on day 14. The initial dose was administered 60 minutes prior to challenge, and the subsequent doses approximately 6 hours apart.
Lung tissue sampling: Lungs were removed from the thorax, snap frozen in liquid nitrogen and stored frozen at −80 degrees Celsius until analysis of cytokine concentration of IL-4, IL-5, IL-8 (KC), IL-9 and IL-13 by ELISA.
The lungs were exposed and excised by gently opening the thorax and by cutting down either side of the sternum and ribs and trimming back. Lungs from first 6 animals per group were removed from thorax, snap frozen in liquid nitrogen and stored frozen at −80° C. until analysis of cytokine concentration by ELISA.

[6] = test system: murine house dust mite/Freunds complete adjuvant driven model of allergic asthma; experiment: Lung histopathology (H&E/PAS), HDM asthma model (Example 3); type: in vivo, BALB/c mice; settings: vs HDM challenged vehicle
Description: as §1, with “apart.[…] Lungs from other 8 animals per group were inflated in situ with 10% buffered formalin, removed from thorax, placed individually in 10% buffered formalin, paraffin embedded in toto, sectioned and H&E/PAS stained. The paraffin blocks were retained for the IHC analysis. Cellular influx (mononuclears, eosinophils, neutrophils) was assessed semi-quantitatively on H&E stained slides separately for peri-bronchial/bronchiolar and perivascular space as follows: [table] Overall score for inflammation was calculated as sum of all individual scores.” for “apart.”

[7] = prophylactic intranasal, not statistically significantly different from the control

GIGDPVTCLKSGAICHPVFCPRRYKQIGTCGLPGTKCCKKP (disulfide 8-37, 15-30, 20-38 (inferred)) [hBD-2, human beta defensin 2]
complete normalization: neutrophil count in BALF [1] | cytokine concentrations in lung tissue homogenates (TNF-α, IL-4, IL-5, IL-6, IL-9 and IL-13) ([4]; prophylactic oral administration)
did not change: macrophages in BALF [1] | eosinophils in BALF ([1]; DEX IN 2 mg/kg day 32-34)
effectively inhibited: decrease of pulmonary compliance ([2]; intranasal TID on day 14) | increase of airway resistance ([2]; intranasal TID on day 14) | decrease of pulmonary compliance ([2]; oral 0.4 mg/kg TID on day 14) | increase of airway resistance / AHR ([2]; oral, hBD-2 0.4 mg/kg TID, dexamethasone 1 mg/kg BID, day 14) | increase in histological inflammation of lung tissue ([6]; intranasal 0.4 mg/kg TID day 14) | increase in histological inflammation of lung tissue ([6]; oral 0.4 mg/kg TID day 14)
trend towards lowering: IL-4 in lung homogenate [4, 7] | IL-5 in lung homogenate [4, 7] | IL-6 in lung homogenate [4, 7] | IL-9 in lung homogenate [4, 7] | IL-13 in lung homogenate [4, 7] | TNF-α in lung homogenate [4, 7]
significant effects: IL-4 level in lung tissue homogenates ([5]; intranasal 0.4 mg/kg TID) | IL-5 level in lung tissue homogenates ([5]; intranasal 0.4 mg/kg TID) | IL-9 level in lung tissue homogenates ([5]; intranasal 0.4 mg/kg TID) | IL-4 level in lung tissue homogenates ([5]; oral 0.4 mg/kg TID) | IL-5 level in lung tissue homogenates ([5]; oral 0.4 mg/kg TID) | IL-9 level in lung tissue homogenates ([5]; oral 0.4 mg/kg TID)
not systemically available: systemic availability after oral dosing [3]
